One data set deals with T1, Rat CYP1A1 (Rattus norvegicus, UniProt P00185).
T1 sequence (P00185 1-524): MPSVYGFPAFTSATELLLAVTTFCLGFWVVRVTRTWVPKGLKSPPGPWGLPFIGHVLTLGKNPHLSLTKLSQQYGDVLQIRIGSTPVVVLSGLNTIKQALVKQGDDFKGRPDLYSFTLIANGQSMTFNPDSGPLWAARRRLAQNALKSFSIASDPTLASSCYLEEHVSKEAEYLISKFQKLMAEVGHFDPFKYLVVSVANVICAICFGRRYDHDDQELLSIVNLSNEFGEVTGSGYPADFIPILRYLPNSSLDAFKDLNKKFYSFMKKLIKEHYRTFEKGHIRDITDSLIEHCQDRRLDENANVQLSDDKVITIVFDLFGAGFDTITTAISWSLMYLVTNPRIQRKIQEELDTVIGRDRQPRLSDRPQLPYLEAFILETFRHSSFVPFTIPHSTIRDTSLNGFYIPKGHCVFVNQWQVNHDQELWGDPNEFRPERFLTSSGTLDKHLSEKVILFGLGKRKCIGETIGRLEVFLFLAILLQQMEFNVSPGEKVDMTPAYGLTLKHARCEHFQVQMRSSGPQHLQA
The data set can be described thus: Turnover of fluorometric substrates by rat CYP1A1. The note with it: substrate uM: Ia 2, AMMC 20, CEC 40, MFC 50, BFC 50, BQ 40, BzRes 50; 30 min; enzyme 50 nM (2.5 nM for CEC).

In the next data set the target is T2, Rat CYP2D2 (Rattus norvegicus, UniProt P10634).
T2 sequence (P10634 1-500): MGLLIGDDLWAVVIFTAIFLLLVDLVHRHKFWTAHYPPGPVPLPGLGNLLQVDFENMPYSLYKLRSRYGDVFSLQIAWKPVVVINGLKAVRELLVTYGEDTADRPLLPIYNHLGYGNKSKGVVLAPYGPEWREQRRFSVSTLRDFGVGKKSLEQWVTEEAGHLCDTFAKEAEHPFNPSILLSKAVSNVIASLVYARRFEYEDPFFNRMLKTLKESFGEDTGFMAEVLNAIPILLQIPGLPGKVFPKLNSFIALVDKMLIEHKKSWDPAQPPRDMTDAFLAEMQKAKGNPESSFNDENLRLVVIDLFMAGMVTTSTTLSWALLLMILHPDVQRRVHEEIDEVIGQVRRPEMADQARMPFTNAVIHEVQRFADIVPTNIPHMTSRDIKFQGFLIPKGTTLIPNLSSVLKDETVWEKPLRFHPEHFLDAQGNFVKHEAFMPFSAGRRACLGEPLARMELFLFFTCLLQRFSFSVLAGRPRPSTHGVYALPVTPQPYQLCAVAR
As to the kind of experiment: Turnover of fluorometric substrates by rat CYP2D2.

Data set [1] has as its target T3, human CYP3A4 (Homo sapiens, UniProt P08684). The note with it: for Range: human.
Data set [2] deals with panel of Human P450 enzymes. The data set can be described thus: Substrate specificity, dealkylation of Compounds Ia and Ib by a panel of human P450 enzymes. It counts as biochemical. The note with it: various P450s. Here is the method: The specificity of several cytochrome P450 enzymes for the dealkylation of Compound Ia (FIG. 1) and Compound Ib (FIG. 2) was examined.
Example Compounds Ia and Ib. […] Final incubation volume was 0.2 ml.

Data set [3] deals with T3, human CYP3A4. The data set can be described thus: High throughput cytochrome P450 inhibition screen, CYP3A4. The note with it: Absolute Mean IC50 Values.
Data set [4] relates to panel of Human P450 enzymes. The data set can be described thus: Specificity of dealkylation of CMFDE and MF by a panel of human P450 enzymes. The note with it: CYP1A1 and CYP2C19; 1 uM substrate. The format is biochemical.
Data set [5] concerns the target T4, CYP2C8 (Homo sapiens, UniProt P10632).
T4 sequence (P10632 1-490): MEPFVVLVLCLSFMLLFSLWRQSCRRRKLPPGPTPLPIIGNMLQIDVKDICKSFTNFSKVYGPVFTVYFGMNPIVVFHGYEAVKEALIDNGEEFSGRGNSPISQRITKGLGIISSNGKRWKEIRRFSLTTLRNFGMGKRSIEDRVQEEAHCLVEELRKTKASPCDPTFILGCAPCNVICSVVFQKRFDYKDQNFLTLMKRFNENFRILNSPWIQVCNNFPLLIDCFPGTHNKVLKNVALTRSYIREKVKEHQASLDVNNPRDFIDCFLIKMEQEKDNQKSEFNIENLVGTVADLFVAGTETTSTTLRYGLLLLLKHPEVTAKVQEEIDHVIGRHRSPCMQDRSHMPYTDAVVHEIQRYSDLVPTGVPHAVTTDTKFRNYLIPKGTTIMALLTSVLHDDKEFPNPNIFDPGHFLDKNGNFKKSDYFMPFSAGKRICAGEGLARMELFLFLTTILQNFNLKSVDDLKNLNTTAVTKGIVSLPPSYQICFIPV
As to the kind of experiment: High throughput cytochrome P450 inhibition screen, CYP2C8, compound Ia as substrate.

In data set [6] the target is T4, CYP2C8.
Substrate in data set [7]: O=C(OCc1ccccc1)c1ccccc1-c1c2ccc(=O)cc-2oc2cc(OCc3ccccc3)ccc12
The data set can be described thus: Enzyme kinetics of substrate turnover by cDNA-expressed CYP2C8. The format is biochemical, human. The note with it: other: CYP2C8. On the procedure: The evaluation of compounds of Formula I were performed by measuring the kinetics of turnover using cDNA-expressed cytochromes P450 CYP3A4 and CYP2C8. Vmax and Km values are important for the optimization of the assay conditions and for setting the parameters for inhibition experiments.
Example Compound Ia. […] Final incubation volume was 0.2 ml. […] The activity was quantitated by comparing to a standard curve of fluorescein. Apparent Km and Vmax values were calculated by non-linear regression using SigmaPlot software.

T3 sequence (P08684 whole entry): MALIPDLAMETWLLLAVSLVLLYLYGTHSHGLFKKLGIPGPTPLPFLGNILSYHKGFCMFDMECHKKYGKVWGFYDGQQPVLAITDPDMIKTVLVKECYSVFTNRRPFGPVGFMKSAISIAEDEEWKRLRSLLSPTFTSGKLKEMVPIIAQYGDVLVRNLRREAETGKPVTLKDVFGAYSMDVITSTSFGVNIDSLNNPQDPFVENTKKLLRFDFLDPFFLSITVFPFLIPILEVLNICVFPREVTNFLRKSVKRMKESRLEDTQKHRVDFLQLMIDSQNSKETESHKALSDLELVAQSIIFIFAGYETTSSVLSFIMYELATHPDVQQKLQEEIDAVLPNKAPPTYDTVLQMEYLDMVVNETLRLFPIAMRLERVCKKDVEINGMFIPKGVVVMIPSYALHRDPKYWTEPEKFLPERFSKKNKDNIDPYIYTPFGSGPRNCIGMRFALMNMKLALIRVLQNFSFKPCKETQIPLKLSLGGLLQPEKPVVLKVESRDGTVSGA

On to `CC[N+](C)(CC)CCc1c(C)c2ccc(OC)cc2oc1=O` [AMMC, 3-[2-(N,N-Diethyl-N-methylamino)ethyl]-7-methoxy-4-methylcoumarin], for which the “Turnover Numbers, CYP1A1” value at Rat CYP1A1 is “—^b”. On Rat CYP2D2 (CYP2D2/AMMC, conditions of Table VI), the substrate utilization is listed as 45%. For the same molecule, the “Turnover Numbers, CYP2D2” value at Rat CYP2D2 (substrate uM: Ia 2, AMMC 20, CEC 40, MFC 50, BFC 50, BQ 40, BzRes 50, 30 min, enzyme 50 nM) was 5.9 pmol product/min/pmol enzyme.
`NC(=O)N1c2ccccc2C=Cc2ccccc21` [Carbamazepine] displayed a Range at human CYP3A4 [1] of 5.3.
Regarding `Clc1ccccc1C(c1ccccc1)(c1ccccc1)n1ccnc1` [Clotrimazole], the Range on human CYP3A4 [1] was 7.9.
On to `O=C(O)c1ccccc1-c1c2ccc(=O)cc-2oc2cc(OCc3ccccc3)ccc12` [Compound Ib, Monobenzyl Fluorescein], for which the “signal as a substrate” value in [2] is recorded as “substantially less signal versus Compound Ia”.
Turning to `CC[C@H]1OC(=O)[C@H](C)[C@@H](O[C@H]2C[C@@](C)(OC)[C@@H](O)[C@H](C)O2)[C@H](C)[C@@H](O[C@@H]2O[C@H](C)C[C@H](N(C)C)[C@H]2O)[C@](C)(O)C[C@@H](C)C(=O)[C@H](C)[C@@H](O)[C@]1(C)O` [Erythromycin], the concentration for half-maximal inhibition (IC50) at human CYP3A4 [3] (BFC, substrate BFC) was 4.5 µM; on human CYP3A4 [3] (BQ, substrate BQ), 54.4 µM; at human CYP3A4 [3] (BzRes, substrate BzRes), 1.8 µM; against human CYP3A4 [3] (Overall, mean over the substrates BzRes, BQ, BFC, Ia), 21.5 µM.
As to `C#C[C@]1(O)CC[C@H]2[C@@H]3CCc4cc(O)ccc4[C@H]3CC[C@@]21C` [Ethynylestradiol], at human CYP3A4 [1], the Range was 4.5.
Consider `COc1ccc2c(c1)Oc1cc(O)ccc1C21OC(=O)c2ccccc21` (centres unmarked) [MF, 3-O-methylfluorescein], for which, in [4], the “substrate quality based on turnover number” value is reported as “good P450 substrate”.
For `COCC(=O)O[C@]1(CCN(C)CCCc2nc3ccccc3[nH]2)CCc2cc(F)ccc2[C@@H]1C(C)C` [Mibefradil], the Range on human CYP3A4 [1] came to 12.
The molecule `Clc1ccc(COC(Cn2ccnc2)c2ccc(Cl)cc2Cl)c(Cl)c1` (centres unmarked) [Miconazole] came in with a Range at human CYP3A4 [1] of 11.
On the same count and under the same terms, the value for `Cc1ncc2n1-c1ccc(Cl)cc1C(c1ccccc1F)=NC2` [Midazolam] was 48.
Consider `CC(=O)[C@H]1CC[C@H]2[C@@H]3CCC4=CC(=O)CC[C@]4(C)[C@H]3CC[C@]12C` [Progesterone], for which the “Absolute Mean IC50 Values, BFC” value on human CYP3A4 [1] is recorded as “Activation”. For the same molecule, at human CYP3A4 [1], the “Absolute Mean IC50 Values, BzRes” value is “Activation”. The IC50 at human CYP3A4 [3] (BQ, substrate BQ) is above 200 µM; on human CYP3A4 [3] (Ia, substrate compound Ia), 11.5 µM.
For the molecule `CC(=O)O[C@H]1C(=O)[C@@]2(C)[C@H]([C@H](OC(=O)c3ccccc3)[C@]3(O)C[C@H](OC(=O)[C@H](O)[C@@H](NC(=O)c4ccccc4)c4ccccc4)C(C)=C1C3(C)C)[C@]1(OC(C)=O)CO[C@@H]1C[C@@H]2O` [paclitaxel], the “inhibition of the turnover of compound Ia” value against CYP2C8 [5] is recorded as “inhibited the turnover of compound Ia”.
Regarding `Nc1ccc(S(=O)(=O)Nc2ccnn2-c2ccccc2)cc1` [sulfaphenazole], the IC50 entry against CYP2C8 [6] was “elevated”.

B1: CYP2C8 (Homo sapiens) (protein)
chain: MEPFVVLVLCLSFMLLFSLWRQSCRRRKLPPGPTPLPIIGNMLQIDVKDICKSFTNFSKVYGPVFTVYFGMNPIVVFHGYEAVKEALIDNGEEFSGRGNSPISQRITKGLGIISSNGKRWKEIRRFSLTTLRNFGMGKRSIEDRVQEEAHCLVEELRKTKASPCDPTFILGCAPCNVICSVVFQKRFDYKDQNFLTLMKRFNENFRILNSPWIQVCNNFPLLIDCFPGTHNKVLKNVALTRSYIREKVKEHQASLDVNNPRDFIDCFLIKMEQEKDNQKSEFNIENLVGTVADLFVAGTETTSTTLRYGLLLLLKHPEVTAKVQEEIDHVIGRHRSPCMQDRSHMPYTDAVVHEIQRYSDLVPTGVPHAVTTDTKFRNYLIPKGTTIMALLTSVLHDDKEFPNPNIFDPGHFLDKNGNFKKSDYFMPFSAGKRICAGEGLARMELFLFLTTILQNFNLKSVDDLKNLNTTAVTKGIVSLPPSYQICFIPV
notes: purchased GENTEST Corporation; host or cells: baculovirus/insect cells (microsomes, SUPERSOMES)
As to B1, in data set [7], the Km came to 1.4 µM and the kcat was 0.00367 s⁻¹.

These data come from patent US6420131B1, “Use of fluorescein aryl ethers in high throughput cytochrome P450 inhibition assays” (Gentest Corporation, priority 1999, dated 2002).
